Reference: patent US20240132484A1, “BROAD SPECTRUM ANTIVIRAL COMPOUNDS TARGETING THE SKI COMPLEX” (priority 2020, published 2024)
Several values for one entry are separate records, joined by “and”; a condition that tells them apart may be missing. Identical values can stand only once. Like-named read-outs stand apart in the source and are kept apart here.

Experiments:
SARS2 = assay type: cell-based, SARS-CoV-2; settings: for Percentage Inhibition Average 1 μM / Screening data (Relative infection to DMSO controls) Average 1 μM: SARS2, 1 μM; for Screening data (Relative infection to DMSO controls) Average 1 μM / Screening data (Relative infection to DMSO controls) Average 5 μM / Screening data (Relative infection to DMSO controls) Average 10 μM / Screening data (Relative infection to DMSO controls) Average 25 μM / Screening data (Relative infection to DMSO controls) Average 50 μM / Average (relative infection to DMSO over the 5 tested concentrations): 100=DMSO control; for Percentage Inhibition Average 5 μM / Screening data (Relative infection to DMSO controls) Average 5 μM: SARS2, 5 μM; for Percentage Inhibition Average 10 μM / Screening data (Relative infection to DMSO controls) Average 10 μM: SARS2, 10 μM; for Percentage Inhibition Average 25 μM / Screening data (Relative infection to DMSO controls) Average 25 μM: SARS2, 25 μM; for Percentage Inhibition Average 50 μM / Screening data (Relative infection to DMSO controls) Average 50 μM: SARS2, 50 μM; for Average (relative infection to DMSO over the 5 tested concentrations): SARS2, average over 1 to 50 uM; for Percentage Infection Relative to Appropriate DMSO Control with Avg Background Subtraction: Nunc Celigo plates; for Infection Data, Average, Mean: average of Exp 1-2 (SMW491, SMW492)
cells (nuclei count) = settings: for Relative cell count to DMSO controls, Average 1 μM / Relative cell count to DMSO controls, Average 5 μM / Relative cell count to DMSO controls, Average 10 μM / Relative cell count to DMSO controls, Average 25 μM / Relative cell count to DMSO controls, Average 50 μM: toxicity data, 100=DMSO control; for Relative cell count to DMSO controls, Average (for correlation analysis): average value over the 5 tested concentrations (1 to 50 uM); for Toxicity Data, Average, Mean percentage relative to DMSO control: Average of Exp 1 (SMW491) and Exp 2 (SMW492)

Structure (SMILES): CN1CCN(CC(O)COc2cccc(N3CCCCC3)c2CNCCc2ccccc2F)CC1 (centres unmarked) [SILCS10]
- SARS2 antiviral activity (SARS2): strong activity
- Percentage Inhibition Average 1 μM (SARS2): 47.40%
- Screening data (Relative infection to DMSO controls) Average 1 μM (SARS2): 52.60
- Percentage Inhibition Average 5 μM (SARS2): 56.27%
- Screening data (Relative infection to DMSO controls) Average 5 μM (SARS2): 43.73
- Percentage Inhibition Average 10 μM (SARS2): 58.42%
- Screening data (Relative infection to DMSO controls) Average 10 μM (SARS2): 41.58
- Percentage Inhibition Average 25 μM (SARS2): 66.00%
- Screening data (Relative infection to DMSO controls) Average 25 μM (SARS2): 34.00
- Percentage Inhibition Average 50 μM (SARS2): 93.61%
- Screening data (Relative infection to DMSO controls) Average 50 μM (SARS2): 6.39
- Average (relative infection to DMSO over the 5 tested concentrations) (SARS2): 35.66
- Relative cell count to DMSO controls, Average 1 μM (cells (nuclei count)): 131.94
- Relative cell count to DMSO controls, Average 5 μM (cells (nuclei count)): 141.21
- Relative cell count to DMSO controls, Average 10 μM (cells (nuclei count)): 131
- Relative cell count to DMSO controls, Average 25 μM (cells (nuclei count)): 50.46
- Relative cell count to DMSO controls, Average 50 μM (cells (nuclei count)): 84.08
- Toxicity Data, Average, Mean (relative to DMSO control) (cells (nuclei count); Average of Exp 1-3, 1 uM): 131.94%
- Toxicity Data, Average, Mean (relative to DMSO control) (cells (nuclei count); Average of Exp 1-3, 5 uM): 141.21%
- Toxicity Data, Average, Mean (relative to DMSO control) (cells (nuclei count); Average of Exp 1-3, 10 uM): 131.00%
- Toxicity Data, Average, Mean (relative to DMSO control) (cells (nuclei count); Average of Exp 1-3, 25 uM): 50.46%
- Toxicity Data, Average, Mean (relative to DMSO control) (cells (nuclei count); Average of Exp 1-3, 50 uM): 84.08%
- Relative cell count to DMSO controls, Average (for correlation analysis) (cells (nuclei count)): 107.74

Structure (SMILES): CCN(CC)CCN(Cc1ccncc1)C(=O)c1cccs1 [SILCS38]
- Percentage Infection Relative to Appropriate DMSO Control with Avg Background Subtraction (SARS2; Exp 1 (SMW491), 1 uM): 101.61% and 80.30%
- Percentage Infection Relative to Appropriate DMSO Control with Avg Background Subtraction (SARS2; Exp 1 (SMW491), 5 uM): 101.51% and 104.07%
- Percentage Infection Relative to Appropriate DMSO Control with Avg Background Subtraction (SARS2; Exp 1 (SMW491), 10 uM): 91.03% and 87.80%
- Percentage Infection Relative to Appropriate DMSO Control with Avg Background Subtraction (SARS2; Exp 1 (SMW491), 25 uM): 110.71% and 103.81%
- Percentage Infection Relative to Appropriate DMSO Control with Avg Background Subtraction (SARS2; Exp 1 (SMW491), 50 uM): 96.25% and 89.03%
- Percentage Infection Relative to Appropriate DMSO Control with Avg Background Subtraction (SARS2; Exp 2 (SMW492), 1 uM): 74.34% and 48.74%
- Percentage Infection Relative to Appropriate DMSO Control with Avg Background Subtraction (SARS2; Exp 2 (SMW492), 5 uM): 72.80% and 60.72%
- Percentage Infection Relative to Appropriate DMSO Control with Avg Background Subtraction (SARS2; Exp 2 (SMW492), 10 uM): 63.76% and 49.65%
- Percentage Infection Relative to Appropriate DMSO Control with Avg Background Subtraction (SARS2; Exp 2 (SMW492), 50 uM): 90.22% and 70.45%
- Percentage Inhibition Average 1 μM (SARS2): 23.75%
- Screening data (Relative infection to DMSO controls) Average 1 μM (SARS2): 76.25
- Percentage Inhibition Average 5 μM (SARS2): 15.22%
- Screening data (Relative infection to DMSO controls) Average 5 μM (SARS2): 84.78
- Percentage Inhibition Average 10 μM (SARS2): 26.94%
- Screening data (Relative infection to DMSO controls) Average 10 μM (SARS2): 73.06
- Percentage Inhibition Average 25 μM (SARS2): 1.37%
- Screening data (Relative infection to DMSO controls) Average 25 μM (SARS2): 98.63
- Percentage Inhibition Average 50 μM (SARS2): 13.51%
- Screening data (Relative infection to DMSO controls) Average 50 μM (SARS2): 86.49
- Average (relative infection to DMSO over the 5 tested concentrations) (SARS2): 83.84
- Infection Data, Average, Mean (SARS2; n 4, 1 uM): 76.25%
- Infection Data, Average, Mean (SARS2; n 4, 5 uM): 84.78%
- Infection Data, Average, Mean (SARS2; n 4, 10 uM): 73.06%
- Infection Data, Average, Mean (SARS2; n 4, 25 uM): 98.63%
- Infection Data, Average, Mean (SARS2; n 4, 50 uM): 86.49%
- Relative cell count to DMSO controls, Average 1 μM (cells (nuclei count)): 111.85
- Relative cell count to DMSO controls, Average 5 μM (cells (nuclei count)): 110
- Relative cell count to DMSO controls, Average 10 μM (cells (nuclei count)): 115.05
- Relative cell count to DMSO controls, Average 25 μM (cells (nuclei count)): 107.71
- Relative cell count to DMSO controls, Average 50 μM (cells (nuclei count)): 105.21
- Toxicity Data, Average, Mean percentage relative to DMSO control (cells (nuclei count); n=4, 1 uM): 111.85%
- Toxicity Data, Average, Mean percentage relative to DMSO control (cells (nuclei count); n=4, 5 uM): 110.00%
- Toxicity Data, Average, Mean percentage relative to DMSO control (cells (nuclei count); n=4, 10 uM): 115.05%
- Toxicity Data, Average, Mean percentage relative to DMSO control (cells (nuclei count); n=4, 25 uM): 107.71%
- Toxicity Data, Average, Mean percentage relative to DMSO control (cells (nuclei count); n=4, 50 uM): 105.21%
- Relative cell count to DMSO controls, Average (for correlation analysis) (cells (nuclei count)): 109.96

Structure (SMILES): CCN(CC)CCN(Cc1cc(C)c(Br)s1)Cc1cc(C)c(Br)s1 [SILCS39]
- Percentage Infection Relative to Appropriate DMSO Control with Avg Background Subtraction (SARS2; Exp 1 (SMW491), 1 uM, listed as SICLS39): 94.45% and 94.76%
- Percentage Infection Relative to Appropriate DMSO Control with Avg Background Subtraction (SARS2; Exp 1 (SMW491), 5 uM, listed as SICLS39): 61.21% and 63.14%
- Percentage Infection Relative to Appropriate DMSO Control with Avg Background Subtraction (SARS2; Exp 1 (SMW491), 10 uM, listed as SICLS39): 26.66% and 13.52%
- Percentage Infection Relative to Appropriate DMSO Control with Avg Background Subtraction (SARS2; Exp 1 (SMW491), 25 uM, listed as SICLS39): 1.98% and 2.03%
- Percentage Infection Relative to Appropriate DMSO Control with Avg Background Subtraction (SARS2; Exp 2 (SMW492), 1 uM, listed as SICLS39): 55.17% and 68.37%
- Percentage Infection Relative to Appropriate DMSO Control with Avg Background Subtraction (SARS2; Exp 2 (SMW492), 5 uM, listed as SICLS39): 40.93% and 42.02%
- Percentage Infection Relative to Appropriate DMSO Control with Avg Background Subtraction (SARS2; Exp 2 (SMW492), 10 uM, listed as SICLS39): 21.95% and 19.13%
- Percentage Infection Relative to Appropriate DMSO Control with Avg Background Subtraction (SARS2; Exp 2 (SMW492), 25 uM, listed as SICLS39): 5.42% and 6.99%
- Percentage Infection Relative to Appropriate DMSO Control with Avg Background Subtraction (SARS2; Exp 2 (SMW492), 50 uM, listed as SICLS39): 5.19% and 10.37%
- Percentage Inhibition Average 1 μM (SARS2): 21.81%
- Screening data (Relative infection to DMSO controls) Average 1 μM (SARS2): 78.19
- Percentage Inhibition Average 5 μM (SARS2): 48.17%
- Screening data (Relative infection to DMSO controls) Average 5 μM (SARS2): 51.83
- Percentage Inhibition Average 10 μM (SARS2): 79.68%
- Screening data (Relative infection to DMSO controls) Average 10 μM (SARS2): 20.32
- Percentage Inhibition Average 25 μM (SARS2): 95.89%
- Screening data (Relative infection to DMSO controls) Average 25 μM (SARS2): 4.11
- Percentage Inhibition Average 50 μM (SARS2): 93.60%
- Screening data (Relative infection to DMSO controls) Average 50 μM (SARS2): 6.40
- Average (relative infection to DMSO over the 5 tested concentrations) (SARS2): 32.17
- Infection Data, Average, Mean (SARS2; n 4, 1 uM): 78.19%
- Infection Data, Average, Mean (SARS2; n 4, 5 uM): 51.83%
- Infection Data, Average, Mean (SARS2; n 4, 10 uM): 20.32%
- Infection Data, Average, Mean (SARS2; n 4, 25 uM): 4.11%
- Infection Data, Average, Mean (SARS2; n 4, 50 uM): 6.40%
- Relative cell count to DMSO controls, Average 1 μM (cells (nuclei count)): 107.69
- Relative cell count to DMSO controls, Average 5 μM (cells (nuclei count)): 114.94
- Relative cell count to DMSO controls, Average 10 μM (cells (nuclei count)): 149.83
- Relative cell count to DMSO controls, Average 25 μM (cells (nuclei count)): 128.15
- Relative cell count to DMSO controls, Average 50 μM (cells (nuclei count)): 46.35
- Toxicity Data, Average, Mean percentage relative to DMSO control (cells (nuclei count); n=4, 1 uM): 107.69%
- Toxicity Data, Average, Mean percentage relative to DMSO control (cells (nuclei count); n=4, 5 uM): 114.94%
- Toxicity Data, Average, Mean percentage relative to DMSO control (cells (nuclei count); n=4, 10 uM): 149.83%
- Toxicity Data, Average, Mean percentage relative to DMSO control (cells (nuclei count); n=4, 25 uM): 128.15%
- Toxicity Data, Average, Mean percentage relative to DMSO control (cells (nuclei count); n=4, 50 uM): 46.35%
- Relative cell count to DMSO controls, Average (for correlation analysis) (cells (nuclei count)): 109.39
